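Five concentrations, 48 hours, 96-well plates. Definition used: TGI = concentration required for complete inhibition of growth.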
Experiments:
Assay in all cases: DTP human tumour cell line panel, 48 h
SNB-75 CNS = test system: SNB-75 CNS
DLD-1 colon = test system: DLD-1 colon
SR leukemia = test system: SR leukemia
786-0 renal = test system: 786-0 renal
HCT-15 colon = test system: HCT-15 colon
HCC-2998 colon = test system: HCC-2998 colon
ACHN renal = test system: ACHN renal
A549 NSCLC = test system: A549 NSCLC
M14 melanoma = test system: M14 melanoma
OVCAR-3 ovarian = test system: OVCAR-3 ovarian
EKVX NSCLC = test system: EKVX NSCLC
NCI-H522 lung = test system: NCI-H522 lung
K-562 leukemia = test system: K-562 leukemia
OVCAR-4 ovarian = test system: OVCAR-4 ovarian
RPMI-8226 leukemia = test system: RPMI-8226 leukemia
SK-MEL-2 melanoma = test system: SK-MEL-2 melanoma
HOP-92 NSCLC = test system: HOP-92 NSCLC
CCRF-CEM leukemia = test system: CCRF-CEM leukemia
HOP-18 NSCLC = test system: HOP-18 NSCLC
DMS 114 small cell lung = test system: DMS 114 small cell lung
OVCAR-8 ovarian = test system: OVCAR-8 ovarian
CAKI-1 renal = test system: CAKI-1 renal
MALME-3M melanoma = test system: MALME-3M melanoma
SNB-78 CNS = test system: SNB-78 CNS
OVCAR-5 ovarian = test system: OVCAR-5 ovarian
LXFL 529 NSCLC = test system: LXFL 529 NSCLC
UACC-62 melanoma = test system: UACC-62 melanoma
RXF-631 renal = test system: RXF-631 renal
HCT-116 colon = test system: HCT-116 colon
UO-31 renal = test system: UO-31 renal
COLO 205 colon = test system: COLO 205 colon
SF-539 CNS = test system: SF-539 CNS
HT29 colon = test system: HT29 colon
SF-268 CNS = test system: SF-268 CNS
SNB-19 CNS = test system: SNB-19 CNS
A498 renal = test system: A498 renal
LOX IMVI melanoma = test system: LOX IMVI melanoma
U251 CNS = test system: U251 CNS
SK-MEL-28 melanoma = test system: SK-MEL-28 melanoma
SF-295 CNS = test system: SF-295 CNS
M19-MEL melanoma = test system: M19-MEL melanoma
HOP-62 NSCLC = test system: HOP-62 NSCLC
TK-10 renal = test system: TK-10 renal
KM20L2 colon = test system: KM20L2 colon
SW-620 colon = test system: SW-620 colon
HL-60(TB) leukemia = test system: HL-60(TB) leukemia
IGROV1 ovarian = test system: IGROV1 ovarian
SK-OV-3 ovarian = test system: SK-OV-3 ovarian
NCI-H23 lung = test system: NCI-H23 lung
MOLT-4 leukemia = test system: MOLT-4 leukemia
UACC-257 melanoma = test system: UACC-257 melanoma
NCI-H226 lung = test system: NCI-H226 lung
SK-MEL-5 melanoma = test system: SK-MEL-5 melanoma
SN12C renal = test system: SN12C renal
DMS 273 small cell lung = test system: DMS 273 small cell lung
NCI-H460 lung = test system: NCI-H460 lung
XF 498 CNS = test system: XF 498 CNS
KM12 colon = test system: KM12 colon
RXF 393 renal = test system: RXF 393 renal

CCOc1ccccc1N1C(=O)C(=O)C(c2nc3ccccc3o2)C(=O)C1=O
TGI (SNB-75 CNS): > 100 µM
TGI (DLD-1 colon): > 100 µM
TGI (SR leukemia): > 100 µM
TGI (786-0 renal): 65 µM
TGI (HCT-15 colon): > 100 µM
TGI (HCC-2998 colon): > 100 µM
TGI (ACHN renal): > 100 µM
TGI (A549 NSCLC): > 100 µM
TGI (M14 melanoma): > 100 µM
TGI (OVCAR-3 ovarian): > 100 µM
TGI (EKVX NSCLC): > 100 µM
TGI (NCI-H522 lung): > 100 µM
TGI (K-562 leukemia): > 100 µM
TGI (OVCAR-4 ovarian): 45.7 µM
TGI (RPMI-8226 leukemia): > 100 µM
TGI (SK-MEL-2 melanoma): > 100 µM
TGI (HOP-92 NSCLC): > 100 µM
TGI (CCRF-CEM leukemia): > 100 µM
TGI (HOP-18 NSCLC): > 100 µM
TGI (DMS 114 small cell lung): > 100 µM
TGI (OVCAR-8 ovarian): > 100 µM
TGI (CAKI-1 renal): > 100 µM
TGI (MALME-3M melanoma): > 100 µM
TGI (SNB-78 CNS): > 100 µM
TGI (OVCAR-5 ovarian): > 100 µM
TGI (LXFL 529 NSCLC): > 100 µM
TGI (UACC-62 melanoma): > 100 µM
TGI (RXF-631 renal): > 100 µM
TGI (HCT-116 colon): > 100 µM
TGI (UO-31 renal): > 100 µM
TGI (COLO 205 colon): > 100 µM
TGI (SF-539 CNS): > 100 µM
TGI (HT29 colon): > 100 µM
TGI (SF-268 CNS): > 100 µM
TGI (SNB-19 CNS): > 100 µM
TGI (A498 renal): > 100 µM
TGI (LOX IMVI melanoma): > 100 µM
TGI (U251 CNS): > 100 µM
TGI (SK-MEL-28 melanoma): > 100 µM
TGI (SF-295 CNS): > 100 µM
TGI (M19-MEL melanoma): > 100 µM
TGI (HOP-62 NSCLC): > 100 µM
TGI (TK-10 renal): > 100 µM
TGI (KM20L2 colon): > 100 µM
TGI (SW-620 colon): > 100 µM
TGI (HL-60(TB) leukemia): > 100 µM
TGI (IGROV1 ovarian): > 100 µM
TGI (SK-OV-3 ovarian): > 100 µM
TGI (NCI-H23 lung): > 100 µM
TGI (MOLT-4 leukemia): > 100 µM
TGI (UACC-257 melanoma): > 100 µM
TGI (NCI-H226 lung): > 100 µM
TGI (SK-MEL-5 melanoma): > 100 µM
TGI (SN12C renal): > 100 µM
TGI (DMS 273 small cell lung): > 100 µM

COC(=O)C(=O)C(C(=O)C(=O)Nc1ccc(F)cc1)c1nc2ccc([N+](=O)[O-])cc2[nH]c1=O (centres undefined)
TGI (SNB-75 CNS): > 100 µM
TGI (DLD-1 colon): > 100 µM
TGI (SR leukemia): > 100 µM
TGI (786-0 renal): > 100 µM
TGI (HCT-15 colon): > 100 µM
TGI (HCC-2998 colon): > 100 µM
TGI (A549 NSCLC): > 100 µM
TGI (M14 melanoma): > 100 µM
TGI (OVCAR-3 ovarian): > 100 µM
TGI (EKVX NSCLC): > 100 µM
TGI (NCI-H522 lung): > 100 µM
TGI (NCI-H460 lung): > 100 µM
TGI (K-562 leukemia): > 100 µM
TGI (OVCAR-4 ovarian): > 100 µM
TGI (RPMI-8226 leukemia): > 100 µM
TGI (HOP-92 NSCLC): > 100 µM
TGI (CCRF-CEM leukemia): > 100 µM
TGI (HOP-18 NSCLC): > 100 µM
TGI (OVCAR-8 ovarian): > 100 µM
TGI (XF 498 CNS): > 100 µM
TGI (CAKI-1 renal): > 100 µM
TGI (MALME-3M melanoma): > 100 µM
TGI (SNB-78 CNS): > 100 µM
TGI (OVCAR-5 ovarian): > 100 µM
TGI (LXFL 529 NSCLC): > 100 µM
TGI (RXF-631 renal): > 100 µM
TGI (HCT-116 colon): > 100 µM
TGI (UO-31 renal): > 100 µM
TGI (COLO 205 colon): > 100 µM
TGI (SF-539 CNS): > 100 µM
TGI (HT29 colon): > 100 µM
TGI (SF-268 CNS): > 100 µM
TGI (SNB-19 CNS): > 100 µM
TGI (A498 renal): > 100 µM
TGI (LOX IMVI melanoma): > 100 µM
TGI (U251 CNS): > 100 µM
TGI (SK-MEL-28 melanoma): > 100 µM
TGI (SF-295 CNS): > 100 µM
TGI (M19-MEL melanoma): > 100 µM
TGI (HOP-62 NSCLC): > 100 µM
TGI (TK-10 renal): > 100 µM
TGI (KM20L2 colon): > 100 µM
TGI (SW-620 colon): > 100 µM
TGI (HL-60(TB) leukemia): > 100 µM
TGI (KM12 colon): > 100 µM
TGI (IGROV1 ovarian): > 100 µM
TGI (SK-OV-3 ovarian): > 100 µM
TGI (NCI-H23 lung): > 100 µM
TGI (UACC-257 melanoma): > 100 µM
TGI (NCI-H226 lung): > 100 µM
TGI (SK-MEL-5 melanoma): > 100 µM
TGI (SN12C renal): > 100 µM
TGI (RXF 393 renal): > 100 µM

COc1cc(/C=C2/C(=O)N(C(=O)OCC(C)C)C(Cc3cc(OC)c(OC)c(C)c3OC)C(=O)N2Cc2ccccc2)c(OC)c(C)c1OC (centres undefined)
TGI (SNB-75 CNS): > 100 µM
TGI (DLD-1 colon): > 100 µM
TGI (SR leukemia): > 100 µM
TGI (786-0 renal): > 100 µM
TGI (HCC-2998 colon): > 100 µM
TGI (ACHN renal): > 100 µM
TGI (A549 NSCLC): > 100 µM
TGI (M14 melanoma): > 100 µM
TGI (OVCAR-3 ovarian): > 100 µM
TGI (EKVX NSCLC): > 100 µM
TGI (NCI-H522 lung): > 100 µM
TGI (NCI-H460 lung): > 100 µM
TGI (K-562 leukemia): > 100 µM
TGI (OVCAR-4 ovarian): > 100 µM
TGI (RPMI-8226 leukemia): > 100 µM
TGI (SK-MEL-2 melanoma): > 100 µM
TGI (HOP-92 NSCLC): > 100 µM
TGI (CCRF-CEM leukemia): > 100 µM
TGI (HOP-18 NSCLC): > 100 µM
TGI (DMS 114 small cell lung): > 100 µM
TGI (OVCAR-8 ovarian): > 100 µM
TGI (CAKI-1 renal): > 100 µM
TGI (MALME-3M melanoma): > 100 µM
TGI (OVCAR-5 ovarian): > 100 µM
TGI (LXFL 529 NSCLC): > 100 µM
TGI (UACC-62 melanoma): > 100 µM
TGI (RXF-631 renal): > 100 µM
TGI (HCT-116 colon): > 100 µM
TGI (UO-31 renal): > 100 µM
TGI (COLO 205 colon): > 100 µM
TGI (SF-539 CNS): > 100 µM
TGI (HT29 colon): > 100 µM
TGI (SF-268 CNS): > 100 µM
TGI (SNB-19 CNS): > 100 µM
TGI (A498 renal): > 100 µM
TGI (LOX IMVI melanoma): > 100 µM
TGI (U251 CNS): > 100 µM
TGI (SK-MEL-28 melanoma): > 100 µM
TGI (SF-295 CNS): > 100 µM
TGI (M19-MEL melanoma): > 100 µM
TGI (HOP-62 NSCLC): > 100 µM
TGI (TK-10 renal): > 100 µM
TGI (KM20L2 colon): > 100 µM
TGI (SW-620 colon): > 100 µM
TGI (HL-60(TB) leukemia): > 100 µM
TGI (KM12 colon): > 100 µM
TGI (IGROV1 ovarian): > 100 µM
TGI (SK-OV-3 ovarian): > 100 µM
TGI (NCI-H23 lung): > 100 µM
TGI (MOLT-4 leukemia): > 100 µM
TGI (UACC-257 melanoma): > 100 µM
TGI (NCI-H226 lung): 9.7 µM
TGI (SK-MEL-5 melanoma): > 100 µM
TGI (SN12C renal): > 100 µM
TGI (RXF 393 renal): > 100 µM
TGI (DMS 273 small cell lung): > 100 µM
